These results are taken from patent US7687491B2, “Heterocyclic compound” (Daiichi Sankyo Company, Limited, priority 2005, dated 2010).

Structures are written as SMILES. Where a name gives a salt, the structure may show the parent alone.

This assay concerns host-versus-graft reaction (HvGR) in the rat. Kind of assay: Inhibitory activity against host-versus-graft reaction (HvGR) in the rat (popliteal lymph node weight). It counts as in vivo. The following applies: po, 1 mg/kg orally once daily for 4 successive days, Lewis rats injected with WKAH/Hkm spleen cells, weight of popliteal lymph nodes vs control group, read-out: Inhibition Rate (%, 1 mg/kg of administration). An excerpt: Determination of Inhibitory Activities of the Compound Against Host-Versus-graft Reaction (HvGR) in the Rat
(1) Two strains of rats [Lewis rats (male, 6 weeks of age, Charles River Japan Inc.) and WKAH/Hkm rats (male, 7 weeks of age, Japan SLC Inc.)] were used. Five rats (host) per group were used.
Spleen cells were isolated from the spleens of WKAH/Hkm rats or Lewis rats and floated in RPMI1640 medium (Life Technologies Inc.) at a concentration of 1×10^8 cells/ml. A 0.1-ml aliquot of the medium containing the free-floating spleen cells (1×10^7 cells) of WKAH/Hkm rats or Lewis rats was then intradermally injected into the bilateral foot pads of the hindlimbs of both sides of Lewis rats.
(3) Administration of Test Compound
The test compound was suspended in 0.5% tragacantha solution. The suspended solution of a compound of the present invention (5 ml/kg of body weight of the rat) was orally administered to rats of the drug-treated group (the Lewis rats in which spleen cells of WKAH/Hkm rats were injected and the test compound was administered) once daily for 4 successive days starting on the day of the spleen cell injection. Furthermore, tragacantha solution (0.5%) instead of the test substance was orally administered to rats in the “same strain group” (Lewis rats injected with spleen cells of Lewis rats) and the control group (Lewis rats injected with spleen cells of WKAH/Hkm rats and not treated with the test compound).
(4) Determination of Inhibitory Activity Against HvGR
The average weight of the popliteal lymph nodes of the same strain rats was subtracted from the individual weights of the popliteal lymph nodes of individual rats (“weight of the popliteal lymph nodes after HvGR-induction”). The inhibitory activity of a compound was calculated from the “weight of the popliteal lymph nodes after HvGR induction” of individual rats in the drug-treated group versus the average “weight of the popliteal lymph nodes after HvGR induction” in the control group.
Regarding `CCc1cc(CN2CC(C(=O)O)C2)sc1-c1noc(-c2ccc(Oc3ccccc3F)cc2)n1` [Example 10, 1-[(4-Ethyl-5-{5-[4-(2-fluorophenoxy)phenyl]-1,2,4-oxadiazol-3-yl}-2-thienyl)methyl]azetidine-3-carboxylic acid 1/2 oxalate], the inhibition in vivo at 1 mg/kg worked out at 61.8%.

On to `Cc1cc(CN2CC(C(=O)O)C2)sc1-c1noc(-c2ccc(Oc3ccccc3)c(F)c2)n1` [Example 11, 1-({5-[5-(3-Fluoro-4-phenoxyphenyl)-1,2,4-oxadiazol-3-yl]-4-methyl-2-thienyl}methyl)azetidine-3-carboxylic acid], for which the inhibition in vivo at 1 mg/kg worked out at 51.6%.

In the case of `Cc1cc(CN2CC(C(=O)O)C2)sc1-c1noc(-c2ccc(Oc3ccccc3)cc2)n1` [Example 12, 1-({4-Methyl-5-[5-(4-phenoxyphenyl)-1,2,4-oxadiazol-3-yl]-2-thienyl}methyl)azetidine-3-carboxylic acid], the inhibition in vivo at 1 mg/kg stood at 55.4%.

With `CCc1cc(CN2CC(C(=O)O)C2)sc1-c1noc(-c2ccc(Oc3ccccc3)cc2)n1` [Example 13, 1-({4-Ethyl-5-[5-(4-phenoxyphenyl)-1,2,4-oxadiazol-3-yl]-2-thienyl}methyl)azetidine-3-carboxylic acid], the inhibition in vivo at 1 mg/kg was 61.3%.

For `CCc1cc(CN2CC(C(=O)O)C2)sc1-c1noc(-c2ccc(Oc3ccccc3)c(F)c2)n1` [Example 14, 1-({4-Ethyl-5-[5-(3-fluoro-4-phenoxyphenyl)-1,2,4-oxadiazol-3-yl]-2-thienyl}methyl)azetidine-3-carboxylic acid], the inhibition in vivo at 1 mg/kg is 65.6%.

As to `CCc1cc(CN2CC(C(=O)O)C2)sc1-c1noc(-c2ccc(Oc3cccc(F)c3)cc2)n1` [Example 17, 1-[(4-Ethyl-5-{5-[4-(3-fluorophenoxy)phenyl]-1,2,4-oxadiazol-3-yl}-2-thienyl)methyl]azetidine-3-carboxylic acid], the inhibition in vivo at 1 mg/kg amounted to 65%.

For `CC(C)Cc1ccc(-c2nc(-c3ccc(CN4CC(C(=O)O)C4)nc3)no2)cc1Cl` [Example 26, 1-({5-[5-(3-Chloro-4-isobutylphenyl)-1,2,4-oxadiazol-3-yl]pyridin-2-yl}methyl)azetidine-3-carboxylic acid], the inhibition in vivo at 1 mg/kg was determined as 80%.

As to `Cc1cc(-c2nc(-c3ccc(CN4CC(C(=O)O)C4)nc3C)no2)ccc1CC(C)C` [Example 27, 1-({5-[5-(4-Isobutyl-3-methylphenyl)-1,2,4-oxadiazol-3-yl]-6-methylpyridin-2-yl}methyl)azetidine-3-carboxylic acid 1/2 oxalate], the inhibition in vivo at 1 mg/kg is 80.6%.

In the case of `Cc1cc(-c2nc(-c3ccc(CN4CC(C(=O)O)C4)nc3)no2)ccc1CC(C)C` [Example 28, 1-({5-[5-(4-Isobutyl-3-methylphenyl)-1,2,4-oxadiazol-3-yl]pyridin-2-yl}methyl)azetidine-3-carboxylic acid 1/2 oxalate], the inhibition in vivo at 1 mg/kg was found to be 77.5%.

For `CCc1nc(CN2CC(C(=O)O)C2)ccc1-c1noc(-c2ccc(CC(C)C)c(C)c2)n1` [Example 29, 1-({6-Ethyl-5-[5-(4-isobutyl-3-methylphenyl)-1,2,4-oxadiazol-3-yl]pyridin-2-yl}methyl)azetidine-3-carboxylic acid], the inhibition in vivo at 1 mg/kg worked out at 83.5%.

On to `CC[C@H](C)Oc1ccc(-c2nc(-c3ccc(CN4CC(C(=O)O)C4)cc3)no2)cc1` [Reference Compound 1, reference compound], for which the inhibition in vivo at 1 mg/kg is -15.5%.

Turning to `O=C(O)C1CN(Cc2ccc(-c3noc(-c4ccc(OC5CCC5)cc4)n3)cc2)C1` [Reference Compound 2, reference compound], the inhibition in vivo at 1 mg/kg is -19%.
